This is an account of results in patent US9034895B2, “Composition and methods for treating glioblastoma” (University of Washington Through its Center for …, priority 2010, dated 2015).

Molecules are shown by their SMILES.

In assay [1] the test system is T98g cells. Nature of the assay: Cell viability assay (WST-1), toxic potency and efficacy at T98g cells. The settings on record: Homo sapiens, 72 h; for cytotoxicity at 10 µM: read-out: Activity at killing T98g cells percent efficacy at 10 μM; for Emax: read-out: Toxic potency at T98g cells (percent efficacy); for EC50: read-out: Toxic potency at T98g cells potency μM. The format is cell-based. As to the method: (§1) Cells were plated media supplemented with 10% serum in 96-well plates (10^4 cells per wellI; 0.1 ml per well). Once they reached ˜70% confluence, they were rinsed with PBS and kept for an additional 24 hrs in media supplemented with 1% serum, at which time drugs or vehicle (DMSO, 0.1%, prepared in 10 μl serum-free media) were directly added to each well. After 3 days, cell viability was assessed using the Cell Proliferation Reagent WST-1 (Roche, Indianapolis, Ind.). Briefly, WST-1 reagent (10 μl) was added to each well for 3 hrs at 37° C. with 5% CO2 and WST-1 products were read at 450 nm using Packard SpectraCount™.
Because the strongest toxic effect of WIN55212-2 was measured in T98g cells, these cells are used as readout to study the structure activity relationship (SAR) of AAI compounds at inducing cell death through AAI receptors.
(In general: Formazan colour is commonly taken as a measure of viable cells.)

Assay [2] relates to protein expressed by NG108-15 cells. The settings on record: cited from earlier work.
The subject of assay [3] is T98g, MDA231 and sknmc cells. Nature of the assay: Cell viability assay, killing of CB1/CB2-lacking cell lines. The format is cell-based, human. The settings on record: for potencies and efficacies at killing T98g, MDA231 and sknmc cells: in words. As to the method: as §1
The expression level of CB1 and CB2 mRNA is determined by qPCR in eight human cell lines and found three, T98g, MDA231 and sknmc cells, that lack CB1 and CB2 mRNA (Table 1).
Based on this evidence, it was determined if WIN55212-2 differentially kills T98g, MDA231 and sknmc cells, which provides an index of AAI receptor functionality in these cells. Also tested is Δ^9-THC (classic cannabinoid) and CP55940 (non-classical cannabinoid).

Assay [4] relates to hippocampal slices prepared from CB1−/− mice. The settings on record: blocked by capsazepine; cited from earlier work.
In assay [5] the target is T1, CB1 (Mus musculus, UniProt P47746).
T1 construct: plasmids containing full coding region of mouse CB1 and CB2; expressed in transfected cells
T1 sequence (P47746 whole entry): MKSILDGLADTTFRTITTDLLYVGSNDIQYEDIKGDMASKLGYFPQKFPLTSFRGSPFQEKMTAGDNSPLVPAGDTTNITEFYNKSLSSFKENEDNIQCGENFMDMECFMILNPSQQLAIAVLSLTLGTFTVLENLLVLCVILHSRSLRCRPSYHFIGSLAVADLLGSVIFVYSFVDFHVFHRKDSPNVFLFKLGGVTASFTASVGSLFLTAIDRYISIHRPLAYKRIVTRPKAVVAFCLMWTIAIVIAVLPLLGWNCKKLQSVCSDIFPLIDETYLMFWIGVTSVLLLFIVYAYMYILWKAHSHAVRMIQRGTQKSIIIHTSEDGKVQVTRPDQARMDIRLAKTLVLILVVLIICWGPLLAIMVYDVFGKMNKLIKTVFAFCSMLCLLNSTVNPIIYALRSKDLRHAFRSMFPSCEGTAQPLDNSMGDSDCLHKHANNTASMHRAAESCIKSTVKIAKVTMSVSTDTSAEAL
Nature of the assay: Radioligand competition binding, [3H]-CP55940, CB1-expressing HEK293 membranes. The settings on record: FIG. 2 (CB1 not shown). As to the method: (§2) Stable CB1 and CB2 expressing HEK293 cell lines were generated using plasmids containing full coding region of mouse CB1 and CB2.
(§3) Fragments were amplified from total RNA of cell lines by reverse transcriptase-polymerase chain reaction (RT-PCR). Sequence was confirmed and the fragment was cloned into the EcoRI site of the pIRES2-eGFP-express vector. Cells were grown to approximately 80% confluence in 10 cm cell culture dishes, transfected with the cDNA pIRES-eGFP-vector containing the murine CB1 or CB2 receptor using LipofectAMINE™ 2000 reagent in the serum-free media Opti-MEM 1 according to the manufacturer's description. Cells were subject to FACS sorting 48 h after transfection and single cell sorted based on dsRed expression into 96-well plates. Of the dsRed expressing positive clones, 3 were validated for CB1 and CB2 protein expression by radioligand binding analysis (methods discussed below).
(§4) Cells were grown to 90% confluence, rinsed twice with 1×PBS and stored at −80° C. until further use. To prepare crude cellular membrane fractions, dishes were removed from −80° C. and thawed at room temperature for 5 min. Once thawed, cells were lysed with ice-cold homogenization buffer (50 mM Tris, 1 mM EDTA, 3 mM MgCl2) and gently scraped from the dish. Total cell lysates from 3-5 dishes were collected on ice in 3 ml of ice-cold homogenization buffer. Cells were homogenized at 6,500 rpm (PRO Scientific, Oxford, Conn.) twice for 10 sec and centrifuged at 11,500 rpm for 20 min at 4° C. Supernatants were discarded and cell pellets were resuspended in homogenization buffer and triturated 10 times in ice-cold homogenization buffer. Crude cellular membrane homogenates were stored at −80° C. until further use. On the day of experiments, frozen homogenates were thawed at room temperature, gently triturated 10 times and subsequently dounce homogenized in a 7 ml glass tissue grinder (Wheaton Science Products, Millville, N.J.) by 5 strokes while on ice. […]
A general note: In a radioligand displacement assay an active substance lowers the binding of a labelled ligand.

In assay [6] the target is T2, CB2 (Mus musculus, UniProt P47936).
T2 construct: plasmids containing full coding region of mouse CB1 and CB2; expressed in transfected cells
T2 sequence (P47936 whole entry): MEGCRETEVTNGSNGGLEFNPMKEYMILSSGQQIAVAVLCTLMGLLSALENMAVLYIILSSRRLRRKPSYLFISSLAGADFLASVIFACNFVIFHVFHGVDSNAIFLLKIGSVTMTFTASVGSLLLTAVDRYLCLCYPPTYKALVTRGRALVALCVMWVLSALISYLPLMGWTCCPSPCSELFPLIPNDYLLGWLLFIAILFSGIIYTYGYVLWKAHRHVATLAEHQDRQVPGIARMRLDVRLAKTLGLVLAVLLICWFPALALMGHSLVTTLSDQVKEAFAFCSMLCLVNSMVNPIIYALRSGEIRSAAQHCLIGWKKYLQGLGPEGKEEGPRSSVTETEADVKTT
Nature of the assay: Radioligand competition binding, [3H]-CP55940, CB2-expressing HEK293 membranes. The settings on record: FIG. 2. As to the method:
as §2, §3, §4

Assay [7] concerns homogenates prepared from CB1−/− mice cerebellum. The settings on record: insensitive to SR144528; cited from earlier work.

With `Cc1c(C(=O)Cn2cnc3ccccc3c2=O)c2ccccc2n1C` [TK5], in assay [1], the cytotoxicity at 10 µM amounted to 3%. As to `COc1ccc(C(=O)c2c(C)n(CCN3CCOCC3)c3ccccc23)cc1` [Pravadoline], in assay [1], the Emax turned out to be 88% and the EC50 came out at 22 µM. For the compound `Cc1ccc(C(=O)c2c(C)n(C)c3ccccc23)c2ccccc12` [JWH-450, (1,2-dimethyl-1H-indol-3-yl)(4-methylnaphthalen-1-yl)methanone], in assay [1], the Emax was 66% and the EC50 is 2 µM.

With `Cn1cc(C(=O)N2CCCc3ccccc32)c2ccccc21` [TK10], in assay [1], the cytotoxicity at 10 µM is 0%. As for `CC(=O)c1c(C)n(CCOc2ccccc2)c2ccccc12` [TK-2], in assay [1], the Emax is 81% and the EC50 worked out at 3.1 µM. On to `CC1=C(CCN2C(=O)COc3ccccc32)c2ccccc2C1C` (centres unmarked) [TK4], for which the cytotoxicity at 10 µM in assay [1] is 10%. In the case of `CC(=O)c1c(C)n(CCCOc2ccccc2)c2ccccc12` [TK-14], in assay [1], the Emax stood at 92% and the EC50 turned out to be 40 µM. As to `COCCn1c(C)c(C(=O)N2CCC3(CC2)NC(=O)N(C)C3=O)c2ccccc21` [TK-8], in assay [1], the Emax was 55% and the EC50 was determined as 886 µM. `Cc1c(C(=O)c2ccccc2)c2ccccc2n1CC(=O)N1CCOCC1` [TK16]: the cytotoxicity at 10 µM in assay [1] worked out at 3%. For the compound `Cc1nccn1CC1CCc2c(c3ccccc3n2C)C1=O` (centres unmarked) [TK3], in assay [1], the cytotoxicity at 10 µM was determined as 11%. `CCCCCCC(C)(C)c1ccc([C@@H]2C[C@H](O)CC[C@H]2CCCO)c(O)c1` [CP55940]: the “competition for WIN-2 binding in NG108-15 cells” value in assay [2] was “did not compete”. In addition, the “potencies and efficacies at killing T98g, MDA231 and sknmc cells” value in assay [3] was “inconsistent potencies and efficacies”. As to `Cc1ccc(C(=O)c2c(C)n(CCN3CCOCC3)c3ncccc23)c2ccccc12` [CBX-003, (2-methyl-1-(2-morpholino ethyl)-1H-pyrrolo[2,3-b]pyridin-3-yl)(4-methylnaphthalen-1-yl)methanone], in assay [1], the Emax was 71% and the EC50 came out at 5 µM. On to `Cc1c(C(=O)c2cccc3ccccc23)c2ccccc2n1C` [JWH-042], for which, in assay [1], the Emax worked out at 71% and the EC50 was 3.1 µM. On to `O=C(c1cccc2ccccc12)c1cn(CCN2CCOCC2)c2ccccc12` [JWH-200], for which, in assay [1], the Emax was determined as 48% and the EC50 was 21 µM. The matching figures for `CCCn1c(C)c(C(=O)c2ccc(C)c3ccccc23)c2ccccc21` [JWH-148]: 48% and 2 µM. With `COCCn1cc(C(=O)N2CCCC(CN(C)C)C2)c2ccccc21` (centres unmarked) [TK9], the cytotoxicity at 10 µM in assay [1] was 0%. For the compound `Cc1ccc(C(=O)c2c(C)n(CCN3CCOCC3)c3cc(Cl)ccc23)c2ccccc12` [CBX-004, (6-chloro-2-methyl-1-(2-morpholinoethyl)-1H-indol-3-yl)(4-methylnaphthalen-1-yl)methanone], in assay [1], the Emax stood at 68% and the EC50 came out at 2 µM.

For the compound `CCCCCn1cc(C(=O)c2cccc3ccccc23)cc1-c1cc(C)cc(O)c1` [JWH-370], the cytotoxicity at 10 µM in assay [1] turned out to be 11%. On to `Cc1ccc(C(=O)c2c(C)n(CCN3CCOCC3)c3ccc(Cl)cc23)c2ccccc12` [CBX-002, (5-chloro-2-methyl-1-(2-morpholino ethyl)-1H-indol-3-yl)(4-methylnaphthalen-1-yl)methanone], for which, in assay [1], the Emax was found to be 45% and the EC50 was 30 µM. Turning to `Cc1ccc(C(=O)c2c3n(c4ccccc24)CCCC3)c2ccccc12` [CBX-005, (4-methylnaphthalen-1-yl)(6,7,8,9-tetrahydropyrido[1,2-a]indol-10-yl)methanone], in assay [1], the Emax is 64% and the EC50 stood at 1.2 µM. Take `Cc1c(C(=O)c2cccc3ccccc23)c2cccc3c2n1[C@@H](CN1CCOCC1)CO3` [WIN55212-2]: the Emax in assay [1] was found to be 87%. The EC50 in assay [1] is 1.5 µM; in assay [3] (Homo sapiens, range over the three cell lines (FIG. 1), read-out: potency at killing T98g, MDA231 and sknmc cells), 1.5 to 2.9 µM. The excitatory transmission result in assay [4] is given as “inhibit”. Further, in assay [5], the “competition for [3H]-CP55940 binding at CB1” value is listed as “competes”. Also, the “competition for [3H]-CP55940 binding at CB2” value in assay [6] is recorded as “competes”. Also, the “binding affinity to a protein expressed by NG108-15 cells” value in assay [2] is “nanomolar affinity”. For the same compound, the “[35S]-GTPγS binding” value in assay [7] is reported as “increase”. For the same compound, the “gradual toxic efficacy across cell lines” value in assay [3] (rank order of cell lines) is on record as “T98g>MDA>sknmc”.

For the compound `CCCCCc1cc(O)c2c(c1)OC(C)(C)[C@@H]1CCC(C)=C[C@@H]21` [THC], the “potencies and efficacies at killing T98g, MDA231 and sknmc cells” value in assay [3] is “inconsistent potencies and efficacies”. With `CCn1c(C)c(C(=O)c2cccc3ccccc23)c2ccccc21` [JWH-043], in assay [1], the Emax stood at 84% and the EC50 was determined as 6.9 µM. In the case of `O=C1CCCc2c1c1ccccc1n2Cc1ccccc1` [TK7], the cytotoxicity at 10 µM in assay [1] turned out to be 19%. Still for that read-out and setting: in the case of `Cc1c(C(=O)C(F)(F)F)c2ccccc2n1CC(=O)NCc1ccccc1` [TK6] it was 8%. Consider `COc1ccc2c(c1)c(C(=O)N1CCCC(c3nnc4ccccn34)C1)c(C)n2C` (centres unmarked) [TK11], for which the cytotoxicity at 10 µM in assay [1] was found to be 10%.

Regarding `Cc1ccc(C(=O)c2c(C)n(CCN3CCOCC3)c3cc(Cl)cc(Cl)c23)c2ccccc12` [CBX-007, (4,6-dichloro-2-methyl-1-(2-morpholino ethyl)-1H-indol-3-yl)(4-methylnaphthalen-1-yl)methanone], in assay [1], the Emax came to 56% and the EC50 was determined as 0.6 µM. For `CCCn1c(C)c(C(=O)c2cccc3ccccc23)c2ccccc21` [JWH-015, (2-methyl-1-propyl-1H-indol-3-yl)(naphthalen-1-yl)methanone] the same measures were 58% and 1.3 µM. On to `Cc1c(CNN2CCOCC2)nn(C)c1C` [TK-1], for which the cytotoxicity at 10 µM in assay [1] came to 6%. With `Cc1ccc(C(=O)c2c(C)n(CCN3CCOCC3)c3ccccc23)c2ccccc12` [TK-18], in assay [1], the Emax stood at 48% and the EC50 was found to be 3 µM. `COc1ccc2c(c1)c(C(O)N1CCCC(c3nnc4ccccn34)C1)c(C)n2C` (centres unmarked) [TK12]: the cytotoxicity at 10 µM in assay [1] was determined as 16%. On the same count and under the same terms, for `CCCn1cc(C(=O)c2ccc(C)c3ccccc23)c2ccccc21` [JWH-120] the value was 0%. Regarding `CC(=O)c1c(C)n(CCOc2cccc3ccccc23)c2ccccc12` [TK-15], in assay [1], the Emax turned out to be 62% and the EC50 was found to be 45 µM.
